# Source: patent US8754216B2, “NK1 antagonists” (OPKO Health, Inc., priority 2004, dated 2014)
# Molecular target: NK1 receptor (Homo sapiens, UniProt P25103)
# Assay: NK1 receptor binding: inhibition of Substance P binding, Ki by Chang-Prusoff equation
# Settings: affinity for the NK1 receptor
# From the text: The in vitro and in vivo NK1, NK2 and NK3 activities of the compounds of Formula I can be determined by various procedures known in the art, such as a test for their ability to inhibit the activity of the NK1 agonist Substance P. The percent inhibition of neurokinin agonist activity is the difference between the percent of maximum specific binding (“MSB”) and 100%. The percent of MSB is defined by the following equation, wherein “dpm” represents “disintegrations per minute”:
# [formula] The concentration at which the compound produces 50% inhibition of binding is then used to determine an inhibition constant (“Ki”) using the Chang-Prusoff equation.
# The activities (potencies) for the compounds of the invention are determined by measuring their Ki values. […] Even more preferred are compounds having average Ki values of from 0.1 nM to about 5 nM for the NK1 receptor. Especially preferred compounds have […], average Ki values of from 0.1 nM to about 1 nM. Even more especially preferred compounds have NK1 average Ki values of from 0.1 nM to about 0.3 nM.
# Chain of NK1 receptor (P25103 whole entry, species assumed): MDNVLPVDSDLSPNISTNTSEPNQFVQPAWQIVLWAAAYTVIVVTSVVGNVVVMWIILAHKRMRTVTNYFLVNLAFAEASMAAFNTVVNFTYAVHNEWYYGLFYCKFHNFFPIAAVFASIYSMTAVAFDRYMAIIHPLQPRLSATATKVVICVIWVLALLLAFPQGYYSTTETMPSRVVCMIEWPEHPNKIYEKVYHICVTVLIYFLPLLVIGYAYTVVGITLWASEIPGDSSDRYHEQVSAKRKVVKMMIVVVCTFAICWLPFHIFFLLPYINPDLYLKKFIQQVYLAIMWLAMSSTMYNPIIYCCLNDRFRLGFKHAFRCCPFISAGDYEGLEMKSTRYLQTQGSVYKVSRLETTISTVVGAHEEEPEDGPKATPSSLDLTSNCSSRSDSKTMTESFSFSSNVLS
row,SMILES,Ki [nM]
1,C/C(=N\O)[C@]1(n2cn[nH]c2=O)CC[C@@](CO[C@H](C)c2cc(C(F)(F)F)cc(C(F)(F)F)c2)(c2ccccc2)NC1 [Compound 54],0.12
2,CCC(=O)[C@]1(n2cn[nH]c2=O)CC[C@@](CO[C@H](C)c2cc(C(F)(F)F)cc(C(F)(F)F)c2)(c2ccccc2)NC1 [Compound 19],0.1
3,COC[C@@]1(n2cnnc2)CC[C@@](CO[C@H](C)c2cc(C(F)(F)F)cc(C(F)(F)F)c2)(c2ccccc2)NC1 [Compound 14],0.1
4,C[C@@H](OC[C@@]1(c2ccccc2)CC[C@](CC(N)=O)(n2cn[nH]c2=O)CN1)c1cc(C(F)(F)F)cc(C(F)(F)F)c1 [Compound 29],0.11
5,CC(=O)C[C@]1(n2cn[nH]c2=O)CC[C@@](CO[C@H](C)c2cc(C(F)(F)F)cc(C(F)(F)F)c2)(c2ccccc2)NC1 [Compound 30],0.54
6,C[C@@H](OC[C@@]1(c2ccccc2)CC[C@@](CO)(n2cnnc2)CN1)c1cc(C(F)(F)F)cc(C(F)(F)F)c1 [Compound 12],0.05
7,COC[C@]1(N2CC(=O)NC2=O)CC[C@@](CO[C@H](C)c2cc(C(F)(F)F)cc(C(F)(F)F)c2)(c2ccccc2)NC1 [Compound 20],0.11
8,C[C@@H](OC[C@@]1(c2ccccc2)CC[C@](C#N)(n2cn[nH]c2=O)CN1)c1cc(C(F)(F)F)cc(C(F)(F)F)c1 [Compound 42],0.28
9,CCNC(=O)C[C@]1(n2cn[nH]c2=O)CC[C@@](CO[C@H](C)c2cc(C(F)(F)F)cc(C(F)(F)F)c2)(c2ccccc2)NC1 [Compound 16],0.13
10,C[C@@H](OC[C@@]1(c2ccccc2)CC[C@](CO)(n2cn[nH]c2=O)CN1)c1cc(C(F)(F)F)cc(C(F)(F)F)c1 [Compound 23],0.12
11,C[C@@H](OC[C@@]1(c2ccccc2)CC[C@@](C(N)=O)(n2cnnc2)CN1)c1cc(C(F)(F)F)cc(C(F)(F)F)c1 [Compound 10],0.1
12,C[C@@H](OC[C@@]1(c2ccccc2)CC[C@](C#N)(N2CCOC2=O)CN1)c1cc(C(F)(F)F)cc(C(F)(F)F)c1 [Compound 2],0.12
13,C[C@@H](OC[C@@]1(c2ccccc2)CC[C@](C#N)(N2CCC2=O)CN1)c1cc(C(F)(F)F)cc(C(F)(F)F)c1 [Compound 9],0.18
